The results in this text go back to article PMC8550792, “Evolution of kinase polypharmacology across HSP90 drug discovery” (Cell Chemical Biology, 2021).

Experiment in all cases: biochemical
Common to all, as to assay type: biochemical

Assay [1] has as its target T1, 382 unique human kinases (Homo sapiens, UniProt P49137).
T1 construct: purchased Reaction Biology (HotSpot contract assay)
The following applies: MAPKAPK2, compound at 10 uM, duplicate values; for remaining activity at 10 µM: read-out: % Enzyme Activity (relative to DMSO controls).

The target in assay [2] is T2, 382 unique human kinases (Homo sapiens, UniProt P10721, K642E).
T2 construct: purchased Reaction Biology (HotSpot contract assay)
T2 sequence (P10721 26-976 K642E): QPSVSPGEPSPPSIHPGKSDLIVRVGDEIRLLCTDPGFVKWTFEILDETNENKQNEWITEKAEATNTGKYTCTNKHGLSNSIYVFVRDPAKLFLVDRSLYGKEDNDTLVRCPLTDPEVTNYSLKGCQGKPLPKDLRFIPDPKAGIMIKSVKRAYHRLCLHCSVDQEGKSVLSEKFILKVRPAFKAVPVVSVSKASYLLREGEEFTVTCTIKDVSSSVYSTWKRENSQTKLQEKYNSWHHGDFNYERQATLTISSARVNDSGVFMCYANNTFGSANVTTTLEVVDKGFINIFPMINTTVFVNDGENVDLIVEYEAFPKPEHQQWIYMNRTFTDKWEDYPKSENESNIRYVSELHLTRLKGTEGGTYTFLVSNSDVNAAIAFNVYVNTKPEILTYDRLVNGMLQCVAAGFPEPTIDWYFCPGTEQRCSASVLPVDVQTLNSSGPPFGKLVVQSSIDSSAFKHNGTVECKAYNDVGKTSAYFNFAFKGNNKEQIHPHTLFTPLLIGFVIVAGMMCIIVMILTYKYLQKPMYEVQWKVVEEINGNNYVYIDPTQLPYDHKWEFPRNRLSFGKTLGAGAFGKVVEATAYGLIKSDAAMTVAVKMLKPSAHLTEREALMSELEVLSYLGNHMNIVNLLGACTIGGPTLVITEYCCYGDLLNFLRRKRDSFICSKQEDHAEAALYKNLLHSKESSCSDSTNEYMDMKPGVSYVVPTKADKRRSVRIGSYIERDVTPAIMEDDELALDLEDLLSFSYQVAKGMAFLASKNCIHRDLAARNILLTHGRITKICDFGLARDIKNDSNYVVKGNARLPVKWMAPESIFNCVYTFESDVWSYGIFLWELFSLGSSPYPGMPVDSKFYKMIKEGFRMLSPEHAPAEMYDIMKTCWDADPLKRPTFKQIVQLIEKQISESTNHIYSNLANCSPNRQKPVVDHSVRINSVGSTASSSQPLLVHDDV
The following applies: kinase c-Kit (K642E), compound 10 uM; for remaining activity at 10 µM: read-out: % Enzyme Activity (relative to DMSO controls).

The target in assay [3] is T3, 382 unique human kinases (Homo sapiens, UniProt O14733).
T3 construct: purchased Reaction Biology (HotSpot contract assay)
T3 sequence (O14733 1-419): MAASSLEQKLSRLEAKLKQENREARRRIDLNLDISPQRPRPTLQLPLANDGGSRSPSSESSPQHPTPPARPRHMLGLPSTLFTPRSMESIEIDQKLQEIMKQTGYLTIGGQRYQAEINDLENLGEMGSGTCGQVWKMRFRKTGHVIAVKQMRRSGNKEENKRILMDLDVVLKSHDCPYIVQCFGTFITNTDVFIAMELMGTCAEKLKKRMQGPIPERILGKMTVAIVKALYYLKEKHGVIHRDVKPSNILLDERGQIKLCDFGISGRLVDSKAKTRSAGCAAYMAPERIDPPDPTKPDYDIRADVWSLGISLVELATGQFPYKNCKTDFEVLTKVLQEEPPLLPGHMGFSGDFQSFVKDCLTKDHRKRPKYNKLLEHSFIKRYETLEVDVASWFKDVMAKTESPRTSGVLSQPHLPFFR
The following applies: kinase MKK7, compound 10 uM; for remaining activity at 10 µM: read-out: % Enzyme Activity (relative to DMSO controls).

The target in assay [4] is T4, 382 unique human kinases (Homo sapiens, UniProt Q8IW41).
T4 construct: purchased Reaction Biology (HotSpot contract assay)
T4 sequence (Q8IW41 1-473): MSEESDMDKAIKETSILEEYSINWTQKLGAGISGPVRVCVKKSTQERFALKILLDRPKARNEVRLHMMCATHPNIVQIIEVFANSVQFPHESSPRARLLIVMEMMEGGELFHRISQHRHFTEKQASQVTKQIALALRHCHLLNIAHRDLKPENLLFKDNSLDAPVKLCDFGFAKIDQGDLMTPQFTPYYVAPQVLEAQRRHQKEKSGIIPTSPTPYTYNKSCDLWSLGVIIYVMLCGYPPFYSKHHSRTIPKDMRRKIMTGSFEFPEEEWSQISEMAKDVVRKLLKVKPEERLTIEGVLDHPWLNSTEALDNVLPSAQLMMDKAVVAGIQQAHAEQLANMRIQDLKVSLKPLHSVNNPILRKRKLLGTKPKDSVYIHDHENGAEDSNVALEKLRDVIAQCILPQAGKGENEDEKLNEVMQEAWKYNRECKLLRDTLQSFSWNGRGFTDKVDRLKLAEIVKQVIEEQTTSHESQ
Conditions: MAPKAPK5/PRAK, compound at 10 uM, duplicate values; for remaining activity at 10 µM: read-out: % Enzyme Activity (relative to DMSO controls).

Assay [5] concerns the target T5, 382 unique human kinases (Homo sapiens, UniProt Q86Z02).
T5 construct: purchased Reaction Biology (HotSpot contract assay)
Conditions: HIPK1, compound at 10 uM, duplicate values; for remaining activity at 10 µM: read-out: % Enzyme Activity (relative to DMSO controls).

Assay [6] concerns the target T6, 382 unique human kinases (Homo sapiens, UniProt Q9HCP0).
T6 construct: purchased Reaction Biology (HotSpot contract assay)
Conditions: CK1g1, 10 uM; for remaining activity at 10 µM: read-out: % Enzyme Activity (relative to DMSO controls).

Assay [7] has as its target T7, 382 unique human kinases (Homo sapiens, UniProt Q8IY84).
T7 construct: purchased Reaction Biology (HotSpot contract assay)
The following applies: NIM1, 10 uM; for remaining activity at 10 µM: read-out: % Enzyme Activity (relative to DMSO controls).

The target of assay [8] is T8, 382 unique human kinases (Homo sapiens, UniProt Q16644).
T8 construct: purchased Reaction Biology (HotSpot contract assay)
T8 sequence (Q16644 whole entry): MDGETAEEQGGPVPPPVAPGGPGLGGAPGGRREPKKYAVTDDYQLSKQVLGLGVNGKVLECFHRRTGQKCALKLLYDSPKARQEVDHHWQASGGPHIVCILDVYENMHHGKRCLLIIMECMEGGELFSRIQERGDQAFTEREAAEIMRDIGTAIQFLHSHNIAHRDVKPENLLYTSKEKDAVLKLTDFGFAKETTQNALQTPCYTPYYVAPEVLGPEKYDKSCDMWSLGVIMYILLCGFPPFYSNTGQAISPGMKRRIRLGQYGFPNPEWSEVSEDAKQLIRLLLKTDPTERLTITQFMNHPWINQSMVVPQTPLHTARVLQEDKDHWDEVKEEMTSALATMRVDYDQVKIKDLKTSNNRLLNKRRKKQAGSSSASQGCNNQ
The following applies: MAPKAPK3, 10 uM; for remaining activity at 10 µM: read-out: % Enzyme Activity (relative to DMSO controls).

In assay [9] the target is T9, 382 unique human kinases (Homo sapiens, UniProt O94921).
T9 construct: purchased Reaction Biology (HotSpot contract assay)
T9 sequence (O94921 whole entry): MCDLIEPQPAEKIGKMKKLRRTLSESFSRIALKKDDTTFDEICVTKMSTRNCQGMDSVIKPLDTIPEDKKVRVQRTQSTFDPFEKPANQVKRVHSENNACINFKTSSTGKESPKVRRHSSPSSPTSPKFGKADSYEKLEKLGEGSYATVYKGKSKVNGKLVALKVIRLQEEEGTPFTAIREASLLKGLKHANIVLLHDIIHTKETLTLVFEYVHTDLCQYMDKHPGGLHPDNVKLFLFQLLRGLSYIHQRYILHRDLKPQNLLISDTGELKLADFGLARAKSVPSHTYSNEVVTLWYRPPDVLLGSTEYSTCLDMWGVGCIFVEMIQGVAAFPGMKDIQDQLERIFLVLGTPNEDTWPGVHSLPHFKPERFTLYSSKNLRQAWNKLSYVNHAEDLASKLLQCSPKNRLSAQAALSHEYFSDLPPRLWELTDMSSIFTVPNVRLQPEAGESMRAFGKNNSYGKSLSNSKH
Conditions: CDK14/cyclin Y (PFTK1), 10 uM; for remaining activity at 10 µM: read-out: % Enzyme Activity (relative to DMSO controls).

The target in assay [10] is T10, 382 unique human kinases (Homo sapiens, UniProt P11362).
T10 construct: purchased Reaction Biology (HotSpot contract assay)
T10 sequence (P11362 22-822): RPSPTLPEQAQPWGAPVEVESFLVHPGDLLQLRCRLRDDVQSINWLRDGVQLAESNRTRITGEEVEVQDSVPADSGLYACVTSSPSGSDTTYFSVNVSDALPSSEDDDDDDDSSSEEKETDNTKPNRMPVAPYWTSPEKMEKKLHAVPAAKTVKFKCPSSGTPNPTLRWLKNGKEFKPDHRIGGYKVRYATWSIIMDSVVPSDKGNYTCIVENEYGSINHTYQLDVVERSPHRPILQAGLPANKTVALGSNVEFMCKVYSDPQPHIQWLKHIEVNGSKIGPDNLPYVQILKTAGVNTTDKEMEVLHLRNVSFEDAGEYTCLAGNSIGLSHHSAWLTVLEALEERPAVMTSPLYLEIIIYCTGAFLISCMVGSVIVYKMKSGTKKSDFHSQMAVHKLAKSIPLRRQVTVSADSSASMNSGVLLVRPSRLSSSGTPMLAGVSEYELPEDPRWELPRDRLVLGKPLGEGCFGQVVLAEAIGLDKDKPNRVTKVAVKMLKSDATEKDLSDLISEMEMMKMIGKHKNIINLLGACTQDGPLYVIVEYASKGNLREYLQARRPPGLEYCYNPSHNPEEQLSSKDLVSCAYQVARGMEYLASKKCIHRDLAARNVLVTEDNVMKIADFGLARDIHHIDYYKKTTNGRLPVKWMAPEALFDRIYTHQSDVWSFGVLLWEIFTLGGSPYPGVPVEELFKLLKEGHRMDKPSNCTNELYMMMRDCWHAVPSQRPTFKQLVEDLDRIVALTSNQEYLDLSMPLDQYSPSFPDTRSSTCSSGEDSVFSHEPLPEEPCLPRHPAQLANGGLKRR
Conditions: FGFR1, [ATP] 5 µM, compound 10 uM; for remaining activity at 10 µM: read-out: % Enzyme Activity (relative to DMSO controls).

Assay [11] deals with T11, 382 unique human kinases (Homo sapiens, UniProt Q52WX2).
T11 construct: purchased Reaction Biology (HotSpot contract assay)
T11 sequence (Q52WX2 whole entry): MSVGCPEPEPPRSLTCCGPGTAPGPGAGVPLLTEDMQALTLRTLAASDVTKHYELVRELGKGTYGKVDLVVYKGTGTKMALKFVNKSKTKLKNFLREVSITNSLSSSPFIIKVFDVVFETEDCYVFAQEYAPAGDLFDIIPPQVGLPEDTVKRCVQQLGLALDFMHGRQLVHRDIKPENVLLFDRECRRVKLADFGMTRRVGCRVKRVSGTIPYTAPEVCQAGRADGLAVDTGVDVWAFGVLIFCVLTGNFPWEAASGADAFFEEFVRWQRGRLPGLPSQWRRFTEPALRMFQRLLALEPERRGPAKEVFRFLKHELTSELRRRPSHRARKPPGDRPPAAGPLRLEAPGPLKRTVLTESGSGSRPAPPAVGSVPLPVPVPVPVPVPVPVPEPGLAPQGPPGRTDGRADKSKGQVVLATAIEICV
The following applies: SBK1, 10 uM; for remaining activity at 10 µM: read-out: % Enzyme Activity (relative to DMSO controls).

Assay [12] addresses T12, 382 unique human kinases (Homo sapiens, UniProt P54762).
T12 construct: purchased Reaction Biology (HotSpot contract assay)
T12 sequence (P54762 18-984): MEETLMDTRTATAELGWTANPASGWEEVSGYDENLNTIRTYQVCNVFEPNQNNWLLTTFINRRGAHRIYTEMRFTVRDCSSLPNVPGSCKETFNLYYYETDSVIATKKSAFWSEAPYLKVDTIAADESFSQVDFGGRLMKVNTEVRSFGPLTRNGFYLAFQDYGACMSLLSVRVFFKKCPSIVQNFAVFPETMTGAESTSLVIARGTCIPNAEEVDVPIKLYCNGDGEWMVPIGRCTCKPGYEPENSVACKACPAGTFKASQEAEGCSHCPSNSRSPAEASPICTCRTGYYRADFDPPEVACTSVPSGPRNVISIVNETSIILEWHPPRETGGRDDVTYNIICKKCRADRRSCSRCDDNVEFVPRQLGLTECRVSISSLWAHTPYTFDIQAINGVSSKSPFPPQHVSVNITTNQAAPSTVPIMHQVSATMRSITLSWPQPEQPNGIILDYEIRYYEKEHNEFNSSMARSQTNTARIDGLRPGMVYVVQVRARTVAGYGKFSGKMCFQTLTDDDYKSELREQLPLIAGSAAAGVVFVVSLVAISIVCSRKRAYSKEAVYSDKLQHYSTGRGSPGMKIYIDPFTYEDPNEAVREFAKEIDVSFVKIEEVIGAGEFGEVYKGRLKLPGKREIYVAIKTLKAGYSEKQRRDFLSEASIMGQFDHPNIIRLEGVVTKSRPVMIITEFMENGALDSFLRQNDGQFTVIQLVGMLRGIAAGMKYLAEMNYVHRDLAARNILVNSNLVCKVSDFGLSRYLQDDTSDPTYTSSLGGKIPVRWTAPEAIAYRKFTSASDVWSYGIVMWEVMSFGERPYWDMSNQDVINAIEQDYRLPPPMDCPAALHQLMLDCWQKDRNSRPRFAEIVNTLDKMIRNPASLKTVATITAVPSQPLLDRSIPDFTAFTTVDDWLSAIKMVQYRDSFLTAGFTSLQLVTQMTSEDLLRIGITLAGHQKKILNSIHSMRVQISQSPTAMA
The following applies: EPHB1, [ATP] 100 µM, compound 10 uM; for remaining activity at 10 µM: read-out: % Enzyme Activity (relative to DMSO controls).

The target of assay [13] is T13, 382 unique human kinases (Homo sapiens, UniProt Q5TCY1).
T13 construct: purchased Reaction Biology (HotSpot contract assay)
T13 sequence (Q5TCY1 whole entry): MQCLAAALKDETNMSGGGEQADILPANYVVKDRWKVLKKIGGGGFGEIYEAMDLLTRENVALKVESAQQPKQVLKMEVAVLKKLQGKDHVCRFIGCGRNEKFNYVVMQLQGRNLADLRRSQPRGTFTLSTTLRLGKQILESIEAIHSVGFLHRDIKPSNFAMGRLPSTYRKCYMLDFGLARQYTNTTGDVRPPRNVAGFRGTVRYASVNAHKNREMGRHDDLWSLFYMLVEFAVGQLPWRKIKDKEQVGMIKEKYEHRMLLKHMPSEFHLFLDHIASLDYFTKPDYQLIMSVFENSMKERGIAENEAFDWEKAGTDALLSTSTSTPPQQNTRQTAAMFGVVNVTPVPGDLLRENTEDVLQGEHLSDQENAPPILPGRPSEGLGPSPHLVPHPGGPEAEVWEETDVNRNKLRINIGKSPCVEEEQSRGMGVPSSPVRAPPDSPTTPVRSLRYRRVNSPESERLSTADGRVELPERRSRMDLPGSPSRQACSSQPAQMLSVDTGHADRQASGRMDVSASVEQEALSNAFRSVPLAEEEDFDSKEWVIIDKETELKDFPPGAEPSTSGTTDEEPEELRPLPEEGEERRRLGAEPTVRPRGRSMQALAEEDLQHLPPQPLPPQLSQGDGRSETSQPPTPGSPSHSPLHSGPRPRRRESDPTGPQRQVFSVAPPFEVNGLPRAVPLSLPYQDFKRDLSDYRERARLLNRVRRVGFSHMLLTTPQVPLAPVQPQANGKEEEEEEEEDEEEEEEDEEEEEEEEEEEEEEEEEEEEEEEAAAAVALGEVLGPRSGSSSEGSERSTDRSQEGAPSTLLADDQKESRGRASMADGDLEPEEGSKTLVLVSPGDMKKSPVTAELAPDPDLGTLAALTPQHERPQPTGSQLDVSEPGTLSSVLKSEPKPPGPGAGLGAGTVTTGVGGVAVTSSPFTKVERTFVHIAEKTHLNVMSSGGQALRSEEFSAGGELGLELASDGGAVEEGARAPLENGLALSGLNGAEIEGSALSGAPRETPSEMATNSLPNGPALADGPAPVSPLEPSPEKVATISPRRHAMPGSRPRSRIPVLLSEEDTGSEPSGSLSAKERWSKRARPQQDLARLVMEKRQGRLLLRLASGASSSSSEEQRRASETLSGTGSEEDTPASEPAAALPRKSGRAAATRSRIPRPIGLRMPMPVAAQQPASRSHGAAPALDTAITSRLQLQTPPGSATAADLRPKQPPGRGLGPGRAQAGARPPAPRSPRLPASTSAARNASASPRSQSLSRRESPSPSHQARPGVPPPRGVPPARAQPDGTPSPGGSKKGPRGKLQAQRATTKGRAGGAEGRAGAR
Conditions: TTBK1, 10 uM; for remaining activity at 10 µM: read-out: % Enzyme Activity (relative to DMSO controls).

T7 sequence (Q8IY84 whole entry): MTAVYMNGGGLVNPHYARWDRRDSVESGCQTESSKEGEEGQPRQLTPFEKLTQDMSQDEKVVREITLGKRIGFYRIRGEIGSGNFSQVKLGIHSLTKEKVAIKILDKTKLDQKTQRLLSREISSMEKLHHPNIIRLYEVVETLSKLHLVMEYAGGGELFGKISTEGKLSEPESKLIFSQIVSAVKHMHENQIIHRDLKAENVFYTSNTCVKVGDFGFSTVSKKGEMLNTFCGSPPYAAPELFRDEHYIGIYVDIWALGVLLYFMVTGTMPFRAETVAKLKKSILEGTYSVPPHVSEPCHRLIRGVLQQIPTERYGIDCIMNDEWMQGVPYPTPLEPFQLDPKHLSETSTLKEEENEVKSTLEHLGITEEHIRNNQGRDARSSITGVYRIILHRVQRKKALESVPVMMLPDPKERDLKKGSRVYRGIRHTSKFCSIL

With `CC(C)c1cc(-c2n[nH]c(=O)n2-c2ccc3c(ccn3C)c2)c(O)cc1O` [Ganetespib (STA9090)], the remaining activity at 10 µM worked out at 102% in [1]; 85.5% in assay [2]; 80.9% in assay [3]; 102% in assay [4]; 133% in [5].

In the case of `CC(C)c1cc(-c2n[nH]c(=O)n2-c2ccc3c(ccn3C)c2)c(O)cc1O` [Ganetespib], the remaining activity at 10 µM in [6] stood at 95.4%; in [7], 90.5%; in assay [8], 97.3%; in assay [9], 93.1%; in assay [10], 58.5%; in [11], 99.8%. The results for the remaining activity at 10 µM in assay [12] and in assay [13] were 36% and 101%, respectively.

In the case of `CCNC(=O)c1noc(-c2cc(C(C)C)c(O)cc2O)c1-c1ccc(CN2CCOCC2)cc1` [Luminespib (AUY-922)], the “% Enzyme Activity (relative to DMSO controls)” value in assay [1] stood at 105.08%; in [2] it was 81.47%; in [3] it was 102.48%; in assay [4], 101.76%; in [5] it was 102.12%. Also, the remaining activity at 10 µM came out at 106% in assay [1]; 82.3% in assay [2]; 105% in assay [3]; 104% in assay [4]; 104% in [5].

Turning to `CCNC(=O)c1noc(-c2cc(C(C)C)c(O)cc2O)c1-c1ccc(CN2CCOCC2)cc1` [Luminespib], the “% Enzyme Activity (relative to DMSO controls)” value in assay [6] came out at 93.44%; in [7] it was 99.73%; in [8] it was 103.47%; in [9], 102.69%; in assay [10] it was 97.95%; in assay [11], 93.40%. For the same compound, the “% Enzyme Activity (relative to DMSO controls)” value in assay [12] was found to be 90.73%; in assay [13], 109.07%. In addition, the remaining activity at 10 µM in assay [6] was 97.5%; in [7], 99.8%; in [8], 105%; in assay [9], 103%; in assay [10], 102%; in assay [11] it was 94.6%. Further, the remaining activity at 10 µM in assay [12] came to 92.3%; in [13], 109%.
